# “Also recorded” adds a separate entry of the source.
# Tested on: microorganisms (e.g., bacteria, yeasts, fungi)
# Experiment: Targeting peptide binding to target microorganisms (Table 3)
# Conditions: microorganism the targeting peptide binds; binding in aqueous buffers varied by peptide solubility, preferably 1x PBS
row,Substance,Target(s)
1,1T-207 (SPLEKYGTGSMTALTFLLGCCLLVLSKKSR; Peptide with targeting and/or antimicrobial activity) [Peptide 1T-207],F. nucleatum; also recorded: S. sanguinis
2,1T-215 (VCFKDISVFLSPFRGQEVLFCGKAKHSLIYVIGT; Peptide with targeting and/or antimicrobial activity) [Peptide 1T-215],S. sanguinis
3,1T-216 (FFLNVIAIRIPHF; Peptide with targeting and/or antimicrobial activity) [Peptide 1T-216],S. sanguinis
4,1T-217 (MLSNVLSRSVVSPNVDIPNSMVILSPLLISISNYH; Peptide with targeting and/or antimicrobial activity) [Peptide 1T-217],F. nucleatum; also recorded: S. sanguinis
5,1T-218 (KLIFAALGLVFLLIGLRDSRSK; Peptide with targeting and/or antimicrobial activity) [Peptide 1T-218],F. nucleatum; also recorded: S. sanguinis
6,1T-219 (RNINVSATFITEKSLV; Peptide with targeting and/or antimicrobial activity) [Peptide 1T-219],S. sanguinis
7,1T-222 (RIEASLISAIMFSMFNAIVKFLQK; Peptide with targeting and/or antimicrobial activity) [Peptide 1T-222],F. nucleatum; also recorded: S. sanguinis
8,1T-237 (EDPVPNHFTLRRNKKEKPSKS; Peptide with targeting and/or antimicrobial activity) [Peptide 1T-237],S. sanguinis
9,1T-239 (ADDLLNKRLTDLIMENAETVKTIDLDNSD; Peptide with targeting and/or antimicrobial activity) [Peptide 1T-239],A. naeslundii; also recorded: S. gordonii; also recorded: S. mitis; also recorded: S. mutans; also recorded: S. oralis; also recorded: S. sanguinis
10,1T-242 (KQVQNTTLIICGTVLLGILFKSYLKSQKSV; Peptide with targeting and/or antimicrobial activity) [Peptide 1T-242],F. nucleatum; also recorded: S. sanguinis
11,1T-248 (IGGALNSCG; Peptide with targeting and/or antimicrobial activity) [Peptide 1T-248],S. sanguinis
12,1T-249 (VFSVLKHTTWPTRKQSWHDFISILEYSAFFALVIFIFDKLLTLGLAELLKRF; Peptide with targeting and/or antimicrobial activity) [Peptide 1T-249],F. nucleatum; also recorded: S. sanguinis
13,1T-250 (LVQGDTILIENHVGTPVKDDGKDCLIIREADVLAVVND; Peptide with targeting and/or antimicrobial activity) [Peptide 1T-250],S. mitis; also recorded: S. mutans; also recorded: S. oralis
14,1T-252 (MKKNLKRFYALVLGFIIGCLFVSILIFIGY; Peptide with targeting and/or antimicrobial activity) [Peptide 1T-252],F. nucleatum; also recorded: S. sanguinis
15,1T-256 (KGKSLMPLLKQINQWGKLYL; Peptide with targeting and/or antimicrobial activity) [Peptide 1T-256],S. sanguinis
16,1T-258 (TINIDDKVLDYLKKINSKAITIDLIGCAS; Peptide with targeting and/or antimicrobial activity) [Peptide 1T-258],A. naeslundii; also recorded: F. nucleatum; also recorded: P. gingivalis; also recorded: T. denticola; also recorded: S. mitis; also recorded: S. mutans; also recorded: S. oralis
17,1T-259 (EKLKKILLKLAVCGKAWYTL; Peptide with targeting and/or antimicrobial activity) [Peptide 1T-259],F. nucleatum; also recorded: P. gingivalis; also recorded: T. denticola; also recorded: S. mitis; also recorded: S. mutans; also recorded: S. oralis; also recorded: S. sanguinis
18,1T-260 (NILYFIHDENQWEPQKAEIFRGSIKHCAWLSS; Peptide with targeting and/or antimicrobial activity) [Peptide 1T-260],A. naeslundii; also recorded: P. gingivalis; also recorded: S. epidermidis; also recorded: S. gordonii; also recorded: S. mitis; also recorded: S. mutans; also recorded: S. oralis; also recorded: S. sanguinis
19,1T-261 (SFEKNKIENNLKIAQAYIYIKPKPRICQA; Peptide with targeting and/or antimicrobial activity) [Peptide 1T-261],F. nucleatum; also recorded: S. mutans; also recorded: S. oralis; also recorded: S. sanguinis
20,1T-264 (LEGKFYMAEDFDKTPECFKDYV; Peptide with targeting and/or antimicrobial activity) [Peptide 1T-264],S. sanguinis
21,1T-266 (RAGTWLVVDEIR; Peptide with targeting and/or antimicrobial activity) [Peptide 1T-266],S. sanguinis
22,1T-267 (RIKEERKNRSYKFFIWRLFDEKTGFI; Peptide with targeting and/or antimicrobial activity) [Peptide 1T-267],A. naeslundii; also recorded: F. nucleatum; also recorded: P. gingivalis; also recorded: T. denticola; also recorded: S. mitis; also recorded: S. mutans; also recorded: S. oralis; also recorded: S. sanguinis
23,1T-268 (PITPKKEKCGLGTYAPKNPVFSKSRV; Peptide with targeting and/or antimicrobial activity) [Peptide 1T-268],F. nucleatum; also recorded: S. mutans; also recorded: S. oralis; also recorded: S. sanguinis
24,1T-269 (PLYVAAVEKINTAKKH; Peptide with targeting and/or antimicrobial activity) [Peptide 1T-269],F. nucleatum; also recorded: S. mutans; also recorded: S. oralis; also recorded: S. sanguinis
25,1T-270 (VHEFDIQKILQNR; Peptide with targeting and/or antimicrobial activity) [Peptide 1T-270],F. nucleatum; also recorded: S. mutans; also recorded: S. oralis; also recorded: S. sanguinis
26,1T-272 (QLAPIDKQLKAVKKIAFYESESTAAKAVTVA; Peptide with targeting and/or antimicrobial activity) [Peptide 1T-272],F. nucleatum; also recorded: S. mutans; also recorded: S. oralis; also recorded: S. sanguinis
27,1T-273 (YNEPNYKWLESYKIYKQRCEDRTGMYYTEET; Peptide with targeting and/or antimicrobial activity) [Peptide 1T-273],F. nucleatum; also recorded: P. gingivalis; also recorded: T. denticola; also recorded: S. mitis; also recorded: S. mutans; also recorded: S. oralis
28,1T-274 (ETTTEINAIKLHRIKQRSPQGTRRVN; Peptide with targeting and/or antimicrobial activity) [Peptide 1T-274],F. nucleatum; also recorded: S. mutans; also recorded: S. oralis; also recorded: S. sanguinis
29,1T-282 (ISLVFPAYT; Peptide with targeting and/or antimicrobial activity) [Peptide 1T-282],F. nucleatum; also recorded: P. gingivalis; also recorded: S. gordonii; also recorded: S. mitis; also recorded: S. mutans; also recorded: S. oralis; also recorded: S. salivarious; also recorded: S. sanguinis
30,1T-286 (LGFFNNKADLVKADTERDNRMSSLKIKDL; Peptide with targeting and/or antimicrobial activity) [Peptide 1T-286],S. sanguinis

# From patent publication US20110039762A1, “TARGETED ANTIMICROBIAL MOIETIES” (C3 JIAN, INC., priority 2009, published 2011)
